# Experimental data reported in US20230097253A1, “NOVEL QUINAZOLINE COMPOUND AS THERAPEUTIC AGENT FOR METABOLIC DISORDERS” (BIOWAY., INC, priority 2020, published 2023).
# Experiments:
# [1] = system: steatosis-induced Huh7 cells; experiment: Quantitative analysis of mRNA of lipogenesis-related factors (qRT-PCR); format: cell-based; conditions: 250 μM PA, 0.5 μM, 24 hours, compared to the control group, FIG. 9-B
# Description: To induce steatosis in Huh-7 cells in each well except for control cells, the Huh-7 cells were treated with PA bound to 2% BSA at a concentration of 250 μM except for the control, and the control cells were pretreated with 2% BSA without FA.
# The cells in each well were treated with the compound of Chemical Formula 2 according to the present invention 0.5 μM and then cultured for 24 hours. The control cells and PA treated cells were treated with DMSO. All media were aspirated and the cells were gently washed 3 times with cold PBS.
# Additionally, the total RNA was extracted using the RNeasy RNA isolation kit (Qiagen, Hilden, Germany).
# Additionally, 10 μL of […] per mL of a cell lysis solution was additionally prepared.
# Additionally, the cells were washed twice with cold PBS and 350 μL of RNA lysis buffer was added thereto.
# Additionally, 70% EtOH was added to the lysate in an equal volume, mixed by pipetting, transferred to a spin column, and centrifuged at 8,000×g for 15 seconds.
# Additionally, the flow-through solution was removed and 700 μL of a wash solution was added to the spin column, centrifuged at 8,000×g, and the flow-through solution was removed. […]
# Additionally, RNA concentration was measured at OD 260 nm using the Nanophotometer N60 (Implen, Munich, Germany) […]
# [2] = system: Huh7 cells induced with inflammatory response; experiment: Protein expression levels in liver cells induced with inflammatory response (western blot); format: cell-based; conditions: Huh7 cells pretreated with 10 ng/ml IL-1β; 0.5, 2.5, 10 μM, 24 hours; FIG. 11
# Description: To induce steatosis in Huh-7 cells in each well except for control cells, the Huh-7 cells were pretreated with 10 ng/ml IL-1p for 2 hr except for the control.
# The cells in each well were treated with the compound of the present invention, BW-3290, 0.5 μM, 2.5 μM, and 10 μM and then cultured for 24 hours. All media were aspirated and the cells were gently washed 3 times with cold PBS.
# A cold lysis buffer containing 150 mM sodium chloride (NaCl), 5 mM ethylenediaminetetraacetic acid (EDTA), pH 8.0, […] 4-(2-hydroxyethyl)-1-piperazineethanesulfonic acid (HEPES), 1% nonylphenoxypolyethoxylethanol (NP-40), 2 μg/mL aprotinin, 1 μM pepstatin A, 10 μM leupeptin, 1 mM sodium fluoride (NaF), 0.2 mM sodium orthovanadate ([…]), and 1 μM phenylmethylsulfonyl fluoride (PMSF) was added thereto.
# A whole cell lysate was collected and gently pipetted at least 10 times to ensure complete lysis. The sample was incubated on ice for 20 minutes and centrifuged 4° C. at 13,000 rpm, for 20 minutes. The supernatant was collected, 5× sodium dodecyl sulfate (SDS) sample buffer containing 50 mM Tris-CI (pH 6.8), 2% SDS, 0.1% bromopheol blue, and 10% glycerol was added to the sample, and boiled at 95° C. for 5 minutes. […]
# Images were acquired using an ImageQuant LAS 3000 (Fujifilm, Tokyo, Japan). Data were analyzed.
# [3] = system: DIAMOND™ mouse model; experiment: Insulin resistance test; format: in vivo; conditions: insulin 0.75 UU/kg intraperitoneally after 6 hours fasting; at 0 and 90 minutes, statistical significance vs control group (VC); FIG. 20
# Description: The DIAMOND™ mouse model, an animal model prepared using a Western diet and sugar water, was used. The DIAMOND™ mice were induced with WDSW for 14 weeks, and 12 mice were used for the control group and 12 mice for the BW-3290 treatment group, and BW-3290 was orally administered at 16 mg/kg once daily for 8 weeks. An autopsy was performed at week 22, and blood collection and tissue storage were performed for the individuals in each group.
# The insulin resistance test was performed one week before autopsy, and the subject was fasted for 6 hours.
# Insulin was injected intraperitoneally at a concentration of 0.75 UU/kg, and the blood was collected 15 minutes, 30 minutes, 45 minutes, and 90 minutes after the injection, and the blood glucose levels were measured using the OneTouch Plus Ultra Glucometer and glucose scores were evaluated therefrom.
compound,measurement,setting,value
"CC(C)C(Nc1ncnc2nc[nH]c12)c1nc2cccc(Cl)c2c(=O)n1-c1ccccc1 (centres unmarked) [BW-3290, 2-(1-((7H-purin-6-yl)amino)-2-methylpropyl)-5-chloro-3-phenylquinazolin-4(3H)-one]",gene expression (mRNA) of FAS,[1],reduced
same,gene expression (mRNA) of SREBP-1c,[1],reduced
same,protein expression level of p-IKKα,[2],decreased in a concentration-dependent manner
same,protein expression level of p-NFκ,[2],decreased in a concentration-dependent manner
same,glucose score,[3],decreased
